Tested on: MV-4-11 cells
Experiment: Gene expression microarray analysis (Affymetrix PrimeView) and GSEA
Assay type: cell-based, human
Design: RFU PODN (11730768_x_at) / Fold change /veh PODN (11730768_x_at) / RFU LINC00158 (11744669_a_at) / Fold change /veh LINC00158 (11744669_a_at) / RFU DUSP10 (11751237_a_at) / Fold change /veh DUSP10 (11751237_a_at) / RFU ID3 (11757404_x_at) / Fold change /veh ID3 (11757404_x_at) / RFU PLEKHG5 (11737974_s_at) / Fold change /veh PLEKHG5 (11737974_s_at) / RFU LRRC4B (11730491_at) / Fold change /veh LRRC4B (11730491_at) / RFU GIMAP4 (11747438_a_at) / Fold change /veh GIMAP4 (11747438_a_at) / RFU KRT8 (11758183_x_at) / Fold change /veh KRT8 (11758183_x_at) / RFU CNN1 (11734310_a_at) / Fold change /veh CNN1 (11734310_a_at) / RFU VPS37D (11726825_at) / Fold change /veh VPS37D (11726825_at) / RFU C10orf10 (11716522_x_at) / Fold change /veh C10orf10 (11716522_x_at) / RFU KIR2DL2 /// KIR2DL4 /// KIR2DL5A /// KIR2DL5B /// KIR2DS1 /// KIR2DS2 /// KIR2DS3 /// KIR2DS4 /// KIR3DL3 /// KIR3DL3 /// KIR3DS1 (11738374_at) / Fold change /veh KIR2DL2 /// KIR2DL4 /// KIR2DL5A /// KIR2DL5B /// KIR2DS1 /// KIR2DS2 /// KIR2DS3 /// KIR2DS4 /// KIR3DL3 /// KIR3DL3 /// KIR3DS1 (11738374_at) / RFU C1QL1 (11718748_at) / Fold change /veh C1QL1 (11718748_at) / RFU TMPRSS4 (11747572_a_at) / Fold change /veh TMPRSS4 (11747572_a_at) / RFU HAMP (11756126_x_at) / Fold change /veh HAMP (11756126_x_at) / RFU RNFT2 (11725882_a_at) / Fold change /veh RNFT2 (11725882_a_at) / RFU NR4A2 (11747474_a_at) / Fold change /veh NR4A2 (11747474_a_at) / RFU ABCC12 (11746883_a_at) / Fold change /veh ABCC12 (11746883_a_at) / RFU TMEM136 (11760407_x_at) / Fold change /veh TMEM136 (11760407_x_at) / RFU CLDN22 /// WWC2 (11732394_at) / Fold change /veh CLDN22 /// WWC2 (11732394_at) / RFU HLA-DPB1 (11760878_x_at) / Fold change /veh HLA-DPB1 (11760878_x_at) / RFU SPINT1 (11716480_a_at) / Fold change /veh SPINT1 (11716480_a_at) / RFU GAP43 (11754022_s_at) / Fold change /veh GAP43 (11754022_s_at) / RFU A4GNT (11735810_at) / Fold change /veh A4GNT (11735810_at) / RFU PRB3 (11715151_x_at) / Fold change /veh PRB3 (11715151_x_at) / RFU TUBB4B (11761932_at) / Fold change /veh TUBB4B (11761932_at) / RFU CAPN14 (11732068_a_at) / Fold change /veh CAPN14 (11732068_a_at) / RFU TMCC2 (11721928_a_at) / Fold change /veh TMCC2 (11721928_a_at) / RFU IRGQ (11745062_a_at) / Fold change /veh IRGQ (11745062_a_at) / RFU FAM174B (11720279_a_at) / Fold change /veh FAM174B (11720279_a_at) / RFU TMPRSS4 (11748680_a_at) / Fold change /veh TMPRSS4 (11748680_a_at) / RFU FAM212B (11763350_a_at) / Fold change /veh FAM212B (11763350_a_at) / RFU PLEKHG5 (11743358_a_at) / Fold change /veh PLEKHG5 (11743358_a_at) / RFU ZSCAN30 (11745921_a_at) / Fold change /veh ZSCAN30 (11745921_a_at) / RFU CMKLR1 (11741424_a_at) / Fold change /veh CMKLR1 (11741424_a_at) / RFU LOC101060620 /// MAPK8IP1 (11723275_at) / Fold change /veh LOC101060620 /// MAPK8IP1 (11723275_at) / RFU SPTSSB (11747773_x_at) / Fold change /veh SPTSSB (11747773_x_at) / RFU PRSS12 (11739890_at) / Fold change /veh PRSS12 (11739890_at) / RFU BIN1 (11741810_x_at) / Fold change /veh BIN1 (11741810_x_at) / RFU WNT11 (11732464_a_at) / Fold change /veh WNT11 (11732464_a_at) / RFU C10orf10 (11716521_a_at) / Fold change /veh C10orf10 (11716521_a_at) / RFU C5orf56 (11738089_at) / Fold change /veh C5orf56 (11738089_at) / RFU CYB561 (11721691_x_at) / Fold change /veh CYB561 (11721691_x_at) / RFU ANKRD19P (11752326_a_at) / Fold change /veh ANKRD19P (11752326_a_at) / RFU OR2T12 /// OR2T33 /// OR2T8 (11738714_s_at) / Fold change /veh OR2T12 /// OR2T33 /// OR2T8 (11738714_s_at) / RFU VCAN (11748164_a_at) / Fold change /veh VCAN (11748164_a_at) / RFU JSRP1 (11732532_at) / Fold change /veh JSRP1 (11732532_at) / RFU KRTAP10-11 (11738290_x_at) / Fold change /veh KRTAP10-11 (11738290_x_at) / RFU MYO3A (11730013_a_at) / Fold change /veh MYO3A (11730013_a_at) / RFU EBF3 (11725865_a_at) / Fold change /veh EBF3 (11725865_a_at) / RFU CAMK2N1 (11719241_x_at) / Fold change /veh CAMK2N1 (11719241_x_at) / RFU C5orf56 (11738088_a_at) / Fold change /veh C5orf56 (11738088_a_at) / RFU OLFML3 (11715873_a_at) / Fold change /veh OLFML3 (11715873_a_at) / RFU LOC100653217 /// NTM (11731650_a_at) / Fold change /veh LOC100653217 /// NTM (11731650_a_at) / RFU MAPK11 (11762145_a_at) / Fold change /veh MAPK11 (11762145_a_at) / RFU FIZ1 (11724087_x_at) / Fold change /veh FIZ1 (11724087_x_at) / RFU OASL (11726364_x_at) / Fold change /veh OASL (11726364_x_at) / RFU SOX15 (11748057_x_at) / Fold change /veh SOX15 (11748057_x_at) / RFU CD79A (11719716_a_at) / Fold change /veh CD79A (11719716_a_at) / RFU HIST1H1D (11736915_at) / Fold change /veh HIST1H1D (11736915_at) / RFU CASKIN2 (11723855_a_at) / Fold change /veh CASKIN2 (11723855_a_at) / RFU LOC730098 (11760151_x_at) / Fold change /veh LOC730098 (11760151_x_at) / RFU OR4N2 (11742367_at) / Fold change /veh OR4N2 (11742367_at) / RFU PRRT2 (11749266_a_at) / Fold change /veh PRRT2 (11749266_a_at) / RFU SNX32 (11753110_a_at) / Fold change /veh SNX32 (11753110_a_at) / RFU CDHR5 (11726645_a_at) / Fold change /veh CDHR5 (11726645_a_at) / RFU RCAN1 (11760418_a_at) / Fold change /veh RCAN1 (11760418_a_at) / RFU FAM167A (11723789_a_at) / Fold change /veh FAM167A (11723789_a_at) / RFU FAM26E (11764081_at) / Fold change /veh FAM26E (11764081_at) / RFU ISYNA1 (11749810_s_at) / Fold change /veh ISYNA1 (11749810_s_at) / RFU ACY1 (11761880_at) / Fold change /veh ACY1 (11761880_at) / RFU 11764098_at / Fold change /veh 11764098_at / RFU SAMD14 (11745864_x_at) / Fold change /veh SAMD14 (11745864_x_at) / RFU NPB (11741838_a_at) / Fold change /veh NPB (11741838_a_at) / RFU TMPRSS6 (11731388_a_at) / Fold change /veh TMPRSS6 (11731388_a_at) / RFU KRTAP10-2 (11738614_at) / Fold change /veh KRTAP10-2 (11738614_at) / RFU ARHGAP8 /// PRR5-ARHGAP8 (11727945_x_at) / Fold change /veh ARHGAP8 /// PRR5-ARHGAP8 (11727945_x_at) / RFU KRTAP5-7 /// NADSYN1 (11734609_at) / Fold change /veh KRTAP5-7 /// NADSYN1 (11734609_at) / RFU RASL12 (11751679_a_at) / Fold change /veh RASL12 (11751679_a_at) / RFU CDKN2B (11736163_a_at) / Fold change /veh CDKN2B (11736163_a_at) / RFU PRF1 (11729649_at) / Fold change /veh PRF1 (11729649_at) / RFU, ZNF638 /// ZNF638-IT1 / Fold change vs veh, ZNF638 /// ZNF638-IT1 / RFU, PANK3 / Fold change vs veh, PANK3 / RFU, SH3YL1 / Fold change vs veh, SH3YL1 / RFU, ZEB2 / Fold change vs veh, ZEB2 / RFU, NRIP1 / Fold change vs veh, NRIP1 / RFU, PTTG1IP / Fold change vs veh, PTTG1IP / RFU, CAPN2 / Fold change vs veh, CAPN2 / RFU, MED14 / Fold change vs veh, MED14 / RFU, SNORA58 / Fold change vs veh, SNORA58 / RFU, C1orf63 / Fold change vs veh, C1orf63 / RFU, LRRFIP1 / Fold change vs veh, LRRFIP1 / RFU, NDUFAF7 / Fold change vs veh, NDUFAF7 / RFU, SLC12A2 / Fold change vs veh, SLC12A2 / RFU, IBTK / Fold change vs veh, IBTK / RFU, ESF1 / Fold change vs veh, ESF1 / Fold change vs veh, TMEM50B / RFU, TAOK1 / Fold change vs veh, TAOK1 / RFU, ACBD3 / Fold change vs veh, ACBD3 / RFU, TMA16 / Fold change vs veh, TMA16 / RFU, RWDD3 / Fold change vs veh, RWDD3 / RFU, BCAT1 / Fold change vs veh, BCAT1 / RFU, EDEM3 / Fold change vs veh, EDEM3 / RFU, TMEM33 / Fold change vs veh, TMEM33 / RFU, WDR75 / Fold change vs veh, WDR75 / RFU, AHCTF1 / Fold change vs veh, AHCTF1 / RFU, TFRC / Fold change vs veh, TFRC / RFU, ZDHHC17 / Fold change vs veh, ZDHHC17 / RFU, NOM1 / Fold change vs veh, NOM1 / RFU, ARL8B / Fold change vs veh, ARL8B / RFU, ZBTB11 / Fold change vs veh, ZBTB11 / RFU, TAMM41 / Fold change vs veh, TAMM41 / RFU, KIAA1704 /// LOC100996395 / Fold change vs veh, KIAA1704 /// LOC100996395 / RFU, ING1 / Fold change vs veh, ING1 / RFU, TRMT61B / Fold change vs veh, TRMT61B / RFU, FUBP3 / Fold change vs veh, FUBP3 / RFU, TP53 / Fold change vs veh, TP53 / RFU, TNKS2 / Fold change vs veh, TNKS2 / RFU, ZFP14 / Fold change vs veh, ZFP14 / RFU, ACTR2 / Fold change vs veh, ACTR2 / RFU, PPP3R1 / Fold change vs veh, PPP3R1 / RFU, PIK3R1 / Fold change vs veh, PIK3R1 / RFU, HNRNPA1 / Fold change vs veh, HNRNPA1 / RFU, RNF170 / Fold change vs veh, RNF170 / RFU, ZNF28 / Fold change vs veh, ZNF28 / RFU, RNGTT / Fold change vs veh, RNGTT / RFU, OGT / Fold change vs veh, OGT / RFU, BRD1 / Fold change vs veh, BRD1 / RFU, MARS / Fold change vs veh, MARS / RFU, ZNF655 / Fold change vs veh, ZNF655 / RFU, FAHD1 / Fold change vs veh, FAHD1 / RFU, BDP1 / Fold change vs veh, BDP1 / RFU, LRRCC1 / Fold change vs veh, LRRCC1 / RFU, ARID1A / Fold change vs veh, ARID1A / RFU, ZNF146 / Fold change vs veh, ZNF146 / RFU, ZNF330 / Fold change vs veh, ZNF330 / RFU, GPN3 / Fold change vs veh, GPN3 / RFU, C9orf123 / Fold change vs veh, C9orf123 / RFU, N4BP2L2 / Fold change vs veh, N4BP2L2 / RFU, ARFIP1 / Fold change vs veh, ARFIP1 / RFU, FAM179B / Fold change vs veh, FAM179B / RFU, BCL10 / Fold change vs veh, BCL10 / RFU, UHRF1BP1L / Fold change vs veh, UHRF1BP1L / RFU, BET1 / Fold change vs veh, BET1 / RFU, CNOT2 / Fold change vs veh, CNOT2 / RFU, ZNF268 / Fold change vs veh, ZNF268 / Fold change vs veh, ZNF507 / RFU, DGCR2 / Fold change vs veh, DGCR2 / RFU, WDSUB1 / Fold change vs veh, WDSUB1 / Fold change vs veh, HSP90B1 /// MIR3652 / RFU, ADSS / Fold change vs veh, ADSS / RFU, GK / Fold change vs veh, GK / RFU, ZNF148 / Fold change vs veh, ZNF148 / RFU, TAF9 / Fold change vs veh, TAF9 / RFU, SLC1A5 / Fold change vs veh, SLC1A5 / RFU, SLMO2 / Fold change vs veh, SLMO2 / RFU, ABCC4 / Fold change vs veh, ABCC4 / RFU, LOC101060439 /// RAP1B / Fold change vs veh, LOC101060439 /// RAP1B / RFU, RFX7 / Fold change vs veh, RFX7 / RFU, GTPBP10 / Fold change vs veh, GTPBP10 / RFU, CNEP1R1 / Fold change vs veh, CNEP1R1 / RFU, BIVM-ERCC5 /// ERCC5 / Fold change vs veh, BIVM-ERCC5 /// ERCC5 / RFU, ILF3 / Fold change vs veh, ILF3 / RFU 11762660_at / Fold change /veh 11762660_at / RFU VCAN (11757783_s_at) / Fold change /veh VCAN (11757783_s_at) / RFU DDX43 (11728927_at) / Fold change /veh DDX43 (11728927_at) / RFU KRT8 (11758188_x_at) / Fold change /veh KRT8 (11758188_x_at) / RFU NKD1 (11759106_at) / Fold change /veh NKD1 (11759106_at) / RFU SRD5A1 (11742802_a_at) / Fold change /veh SRD5A1 (11742802_a_at) / RFU TPSAB1 /// TPSB2 (11721975_s_at) / Fold change /veh TPSAB1 /// TPSB2 (11721975_s_at) / RFU GSTM3 (11746129_a_at) / Fold change /veh GSTM3 (11746129_a_at) / RFU IL23R (11737362_x_at) / Fold change /veh IL23R (11737362_x_at) / RFU TMEM51 (11727254_a_at) / Fold change /veh TMEM51 (11727254_a_at) / RFU PIWIL2 (11732686_x_at) / Fold change /veh PIWIL2 (11732686_x_at) / RFU ORM1 (11744905_x_at) / Fold change /veh ORM1 (11744905_x_at) / RFU CCDC152 (11743942_at) / Fold change /veh CCDC152 (11743942_at) / RFU ECM1 (11717891_a_at) / Fold change /veh ECM1 (11717891_a_at) / RFU IL23R (11748794_a_at) / Fold change /veh IL23R (11748794_a_at) / RFU TNFAIP8L3 (11732012_x_at) / Fold change /veh TNFAIP8L3 (11732012_x_at) / RFU MBOAT4 (11741988_at) / Fold change /veh MBOAT4 (11741988_at) / RFU 11764193_at / Fold change /veh 11764193_at / RFU TMEM53 (11763286_at) / Fold change /veh TMEM53 (11763286_at) / RFU MAGEB2 (11727129_at) / Fold change /veh MAGEB2 (11727129_at) / RFU TMEM200A (11744735_a_at) / Fold change /veh TMEM200A (11744735_a_at) / RFU CCDC152 (11751479_a_at) / Fold change /veh CCDC152 (11751479_a_at) / RFU FAM211A (11726209_a_at) / Fold change /veh FAM211A (11726209_a_at) / RFU RGS16 (11746705_a_at) / Fold change /veh RGS16 (11746705_a_at) / RFU VCAN (11755009_s_at) / Fold change /veh VCAN (11755009_s_at) / RFU RHOB (11743442_s_at) / Fold change /veh RHOB (11743442_s_at) / RFU RGS16 (11720943_a_at) / Fold change /veh RGS16 (11720943_a_at) / RFU RGS16 (11720944_at) / Fold change /veh RGS16 (11720944_at) / RFU, VPS4B / Fold change vs veh, VPS4B / RFU, CREB1 / Fold change vs veh, CREB1 / RFU, DNAJC13 / Fold change vs veh, DNAJC13 / RFU, GNAQ / Fold change vs veh, GNAQ / RFU, CDK5R1 / Fold change vs veh, CDK5R1 / RFU, ZRANB3 / Fold change vs veh, ZRANB3 / RFU, CUL4A / Fold change vs veh, CUL4A / RFU, CCNY / Fold change vs veh, CCNY / RFU, UFL1 / Fold change vs veh, UFL1 / RFU, COG3 / Fold change vs veh, COG3 / RFU, DIAPH2 / Fold change vs veh, DIAPH2 / RFU, SKA2 / Fold change vs veh, SKA2 / RFU, AFF3 / Fold change vs veh, AFF3 / RFU, LMF1 / Fold change vs veh, LMF1 / RFU, IPO11 / Fold change vs veh, IPO11 / RFU, DFFB / Fold change vs veh, DFFB / RFU, FOXP1 / Fold change vs veh, FOXP1 / RFU, CARD8 / Fold change vs veh, CARD8 / RFU, STRN3 / Fold change vs veh, STRN3 / RFU, ADK / Fold change vs veh, ADK / RFU, RASSF2 / Fold change vs veh, RASSF2 / RFU, WIPF1 / Fold change vs veh, WIPF1 / RFU, LARP1B / Fold change vs veh, LARP1B / RFU, RASA1 / Fold change vs veh, RASA1 / RFU, RB1 / Fold change vs veh, RB1 / RFU, PPFIA1 / Fold change vs veh, PPFIA1 / RFU, MAT2A / Fold change vs veh, MAT2A / RFU, CCT5 / Fold change vs veh, CCT5 / RFU, WDR92 / Fold change vs veh, WDR92 / RFU, CUX1 / Fold change vs veh, CUX1 / RFU, TTC7A / Fold change vs veh, TTC7A / RFU, TMEM135 / Fold change vs veh, TMEM135 / RFU, DEPTOR / Fold change vs veh, DEPTOR / RFU, CPM / Fold change vs veh, CPM / RFU, DNAJB6 / Fold change vs veh, DNAJB6 / RFU, CACNA2D3 / Fold change vs veh, CACNA2D3 / RFU, DTX4 / Fold change vs veh, DTX4 / RFU, TFCP2 / Fold change vs veh, TFCP2 / RFU, GMCL1 /// GMCL1P1 / Fold change vs veh, GMCL1 /// GMCL1P1 / RFU, AEBP2 / Fold change vs veh, AEBP2 / RFU, SNHG1 /// SNORD22 /// SNORD25 /// SNORD26 /// SNORD27 /// SNORD28 /// SNORD29 /// SNORD31 / Fold change vs veh, SNHG1 /// SNORD22 /// SNORD25 /// SNORD26 /// SNORD27 /// SNORD28 /// SNORD29 /// SNORD31 / Fold change (Aza/veh), C12orf56 (ProbeSet 11735607_a_at) / Fold change (ACY-1035/veh), C12orf56 (ProbeSet 11735607_a_at) / Fold change (Aza/veh), FGFR1OP (ProbeSet 11751329_s_at) / Fold change (ACY-1035/veh), FGFR1OP (ProbeSet 11751329_s_at) / Fold change (Aza/veh), VPS36 (ProbeSet 11739960_a_at) / Fold change (ACY-1035/veh), VPS36 (ProbeSet 11739960_a_at) / RFU SYPL1 (11715823_x_at) / Fold change /veh SYPL1 (11715823_x_at) / RFU IGFBP7 (11715501_s_at) / Fold change /veh IGFBP7 (11715501_s_at) / RFU REEP3 (11722064_at) / Fold change /veh REEP3 (11722064_at) / RFU IGLL1 (11728026_x_at) / Fold change /veh IGLL1 (11728026_x_at): dose or concentration left out as unconfirmed
Conditions: ProbeSet 11731093_s_at; LIST B

Nc1ccc(-c2cccs2)cc1NC(=O)c1ccc2c(c1)cc(C1CC1)n2CCN1CCOCC1 [ACY-1035]
RFU, BRD1: 190.44 RFU

Reference: PMC5218480 (PLoS ONE, 2017)
